{"source": "patent US20250009664A1", "about": "“DOSAGE FORM FOR INTRA-[…] INJECTION […] USE IN THE TREATMENT OF CRYSTAL-AND NON-CRYSTAL […] IN[…]” (priority 2021, published 2025)", "origin": "cited, not measured here", "conditions": "literature"}
{"smiles": "COc1cc2c(c(OC)c1OC)-c1ccc(OC)c(=O)cc1[C@@H](NC(C)=O)CC2", "note": "[colchicine, N-[(7S)-1,2,3,10-tetramethoxy-9-oxo-6,7-dihydro-5H-benzo[a]heptalen-7-yl]acetamide]", "values": [{"measurement": "lethal dose", "value": 0.8, "unit": "mg/kg"}, {"measurement": "toxicity limit", "value": 0.1, "unit": "mg/kg"}]}
